Assay [1] concerns the target α1 -receptors. As to the kind of experiment: 3H-prazosin displacement, receptor binding in rat brain membranes. From the text: (§1) The selectivity of the d-enantiomer as an α2 -agonist was studied in receptor binding experiments using rat brain membranes. […] 108, 163-9, 1985.
In assay [2] the target is T1, presynaptic α2 -adrenoceptors (Mus musculus, UniProt Q01338).
T1 construct: isolated, electrically stimulated mouse was deferens preparation; from tissue; host or cells: mouse vas deferens
T1 sequence (Q01338 1-465): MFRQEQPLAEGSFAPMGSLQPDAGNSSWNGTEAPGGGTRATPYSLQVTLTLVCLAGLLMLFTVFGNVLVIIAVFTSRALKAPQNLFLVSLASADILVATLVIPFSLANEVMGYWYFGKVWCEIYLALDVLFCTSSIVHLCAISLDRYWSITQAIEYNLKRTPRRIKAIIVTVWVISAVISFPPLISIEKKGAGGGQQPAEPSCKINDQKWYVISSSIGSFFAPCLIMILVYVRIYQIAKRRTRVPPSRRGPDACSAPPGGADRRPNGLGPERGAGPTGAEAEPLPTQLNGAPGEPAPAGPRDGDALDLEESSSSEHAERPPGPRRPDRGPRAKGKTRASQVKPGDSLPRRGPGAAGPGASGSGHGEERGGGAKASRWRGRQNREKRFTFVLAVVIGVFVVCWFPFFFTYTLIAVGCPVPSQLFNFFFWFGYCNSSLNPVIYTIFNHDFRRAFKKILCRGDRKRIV
Briefly: α2-agonism in vitro, isolated electrically stimulated mouse vas deferens. The class given is cell-based. The conditions noted are these: for EC50: negative log of molar concentration producing 50 percent of maximal inhibition of electrically induced contractions, read-out: α2 -agonism in vitro (mouse vas deferens). pD2 (converted). The procedure: α2 -agonism was determined by means of isolated, electrically stimulated mouse was deferens preparation (Marshall et al., Br. J. Pharmac. 62, 147-151, 1978). […] Results are shown in Table 1, where the α2 -agonist effect is presented as the pD2 -value (negative logarith of the molar concentration of the compound producing 50 percent of maximal inhibition.)

The subject of assay [3] is mice. Briefly: Spontaneous motility (Animex-activity meter). In kind it is in vivo. The conditions noted are these: Mus musculus, sc, 0.5 h; s.c.; 30 minutes before two-minute measuring period; read-out: ED50 in reducing spontaneous motility in mice.
Assay [4] deals with mice. As to the kind of experiment: Acetic acid-induced writhing test. In kind it is in vivo. Particulars: Mus musculus, sc, 45 min before 1% acetic acid i.p.; writhes counted 25 min. As to the method:
The sedative-analgesic properties of the compounds were studied in the spontaneous motility and writhing-test in the mouse. Spontaneous motility of mice and rats was measured using the Animex-activity meter. The test compounds were administered i.p. 30 minutes before the measuring periods of two minutes. In the writhing test the compounds studied and saline were administered s.c. to […], and 45 min. later 1 ml of 1% acetic acid was administered i.p. The number of writhes was recorded in the following 25 min. period (Koster et al., Fred. Proc. 18: 412, 1959).

For assay [5], the target named is T2, α2 -receptors (Rattus norvegicus, UniProt P22909).
T2 construct: from tissue; host or cells: rat brain membranes
T2 sequence (P22909 1-465): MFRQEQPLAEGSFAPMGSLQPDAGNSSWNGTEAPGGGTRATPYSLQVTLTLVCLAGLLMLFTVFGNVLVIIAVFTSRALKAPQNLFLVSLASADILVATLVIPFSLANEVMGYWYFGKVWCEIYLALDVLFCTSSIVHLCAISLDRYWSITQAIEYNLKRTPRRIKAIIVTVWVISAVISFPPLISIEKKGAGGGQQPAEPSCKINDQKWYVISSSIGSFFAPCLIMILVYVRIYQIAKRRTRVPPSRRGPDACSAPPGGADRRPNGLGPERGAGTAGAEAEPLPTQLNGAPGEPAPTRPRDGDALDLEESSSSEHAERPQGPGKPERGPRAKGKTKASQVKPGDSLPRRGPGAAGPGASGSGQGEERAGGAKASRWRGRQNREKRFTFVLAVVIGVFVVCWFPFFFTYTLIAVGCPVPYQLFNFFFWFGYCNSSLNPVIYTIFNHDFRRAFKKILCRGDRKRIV
Briefly: biochemical. In kind it is binding.
From the text: as §1

Assay [6] concerns α2 -receptors. Briefly: biochemical. The conditions noted are these: ratio of 3H-prazosin IC50 to 3H-clonidine IC50. In kind it is binding, rat.
From the text: as §1

Assay [7] relates to rat. The conditions noted are these: for CSF MHPG-SO4 (% of control): 4 h after adm. From the text:
It is well known that anxiety states connected to withdrawal symptoms are due to noradrenergic hyperactivity.

In assay [8] the test system is Sprague-Dawley rats. The conditions noted are these: anesthetized rats; for Decrease in BP / Decrease in heart rate: femoral vein. The procedure: After this, the femoral artery was connected by a polyethylene tube to a blood pressure transducer. The test substance was then injected into the femoral vein and the blood pressure and the pulse frequency were registered with a recorder.

The subject of assay [9] is rat. As to the kind of experiment: Elevated t-maze test, exploration of open and enclosed arms (anxiolytic effects). The class given is in vivo. Particulars: for Mean number of entries, closed / Mean number of entries, open / Mean number of entries, total / open/total entries: 5 minutes, n = 6. The procedure: The anxiolytic effects of the compounds were studied using a method described by Handley and Mithoni: Naunyn-Schmiedeb, Arch. Pharmacol. 327, 1-5, 1984. In this test the manner of exploration of open and enclosed arms in an elevated t-maze by a rat is examined. It has been shown that anxiolytic drugs increase the relative exploration of open arms. A rat is placed in the center of the t-maze and the number of open and enclosed entries is recorded during 5 minutes.

Each structure is given as a SMILES string. Read-outs that look alike come from different tables or passages of the source.

`Cc1cccc(C(C)c2cnc[nH]2)c1C` (racemic) [medetomidine]: the IC50 in assay [1] was 16700 nM; in assay [5], 3.3 nM. Besides, in assay [2], the EC50 is 1 nM. For the same molecule, the ED50 came out at 0.05 mg/kg in assay [3] and 0.02 mg/kg in assay [4]. The “α2 /α1 -selectivity” value in assay [6] is recorded as 5060.

Regarding `Cc1cccc([C@@H](C)c2cnc[nH]2)c1C` [1-enantiomer], the IC50 in assay [1] was 190000 nM; in [5], 46 nM. The EC50 in assay [2] was 1000 nM. The “type of agonism (mouse vas deferens)” value in assay [2] (remark in pD2 cell) is on record as “partial agonist”. Moreover, the ED50 in assay [3] and in assay [4] was more than 10 mg/kg throughout. In addition, the “α2 /α1 -selectivity” value in assay [6] turned out to be 4129.

Consider `Clc1cccc(Cl)c1N=C1NCCN1` [clonidine, reference compound], for which the IC50 in assay [1] stood at 6200 nM. Further, in assay [2], the EC50 is 3.16 nM. Besides, the values for the ED50 in [3] and in assay [4] were 0.3 mg/kg and 0.03 mg/kg, respectively.

For the molecule `Cc1cccc([C@H](C)c2cnc[nH]2)c1C` [d-enantiomer], the “effect on noradrenaline release (in words)” value in assay [7] (central and peripheral nervous systems) is listed as “able to reduce noradrenaline release”. For the same molecule, the “CSF MHPG-SO4 (% of control)” value in assay [7] (dose 3 μg/kg) was -10 % of control; in [7] (dose 10 μg/kg), -20 % of control; in assay [7] (dose 30 μg/kg) it was -30 % of control; in assay [7] (dose 100 μg/kg), -65 % of control. For the same molecule, in assay [8] (summary of Table 7), the “effect on blood pressure and heart rate (in words)” value is “clear anti-hypertensive and bradycardia effects”. In addition, the “Decrease in BP” value is -8% in assay [8] (dose 0.001 mg/kg); -23% in [8] (dose 0.003 mg/kg); -43% in assay [8] (dose 0.01 mg/kg); -45% in assay [8] (dose 0.03 mg/kg); -45% in assay [8] (dose 0.1 mg/kg). The “Decrease in heart rate” value in assay [8] (dose 0.001 mg/kg) is recorded as -21%; in assay [8] (dose 0.003 mg/kg), -40%; in assay [8] (dose 0.01 mg/kg) it was -47%; in [8] (dose 0.03 mg/kg) it was -48%; in [8] (dose 0.1 mg/kg) it was -50%. The IC50 amounted to 55000 nM in assay [1] and 1.2 nM in assay [5]. Besides, in [2], the EC50 is 0.501 nM. Further, the figures for the 50% effective dose (ED50) in assay [3] and in assay [4] were 0.02 mg/kg and 0.01 mg/kg, respectively. Further, the “Mean number of entries, closed” value stood at 10.6 in assay [9] (dose 0.0003 mg/kg); 10.6 in [9] (dose 0.001 mg/kg); 9.5 in [9] (dose 0.003 mg/kg); 8.8 in [9] (dose 0.01 mg/kg); 3.0 in assay [9] (dose 0.03 mg/kg). Besides, the “Mean number of entries, open” value in [9] (dose 0.0003 mg/kg) stood at 4.8; in assay [9] (dose 0.001 mg/kg), 3.2; in assay [9] (dose 0.003 mg/kg) it was 4.0; in [9] (dose 0.01 mg/kg), 5.8; in [9] (dose 0.03 mg/kg), 2.5. For the same molecule, the “Mean number of entries, total” value in assay [9] (dose 0.0003 mg/kg) is 14.0; in assay [9] (dose 0.001 mg/kg), 13.8; in assay [9] (dose 0.003 mg/kg), 13.5; in [9] (dose 0.01 mg/kg), 14.6; in [9] (dose 0.03 mg/kg), 5.5. Besides, the open/total entries in assay [9] (dose 0.0003 mg/kg) was found to be 0.20; in assay [9] (dose 0.001 mg/kg), 0.23; in assay [9] (dose 0.003 mg/kg), 0.29; in assay [9] (dose 0.01 mg/kg), 0.39; in assay [9] (dose 0.03 mg/kg) it was 0.45. The “anxiolytic effect in the elevated t-maze test (in words)” value in assay [9] (summary of Table 5) is “anxiolytic profile”. Also, the “α2 /α1 -selectivity” value in [6] stood at 45849.

As for `Cc1cccc(Cc2c[nH]cn2)c1C` [detomidine], the EC50 in assay [2] is 3.16 nM. The ED50 in assay [3] stood at 0.3 mg/kg; in assay [4], 0.02 mg/kg. This molecule gave an IC50 in assay [5] of 3.7 nM.

Turning to `CN1C(=O)CN=C(c2ccccc2)c2cc(Cl)ccc21` [diazepam, reference compound], in assay [9] (dose 1 mg/kg), the “Mean number of entries, closed” value was 10.5; the “Mean number of entries, open” value is 5.2; the “Mean number of entries, total” value worked out at 15.7; the open/total entries is recorded as 0.33.

(Values after patent publication US4910214A, “Optical isomer of an imidazole derivative medetomidine as an alpha-2-receptor agonist” (Farmos Yhtyma Oy, priority 1987, dated 1990).)
